Test results as given in patent US8841341B2, “Pharmaceutical composition effective against biofilms” (Helmholtz-Zentrum fuer Infektionsforschung GmbH, priority 2007, dated 2014).
“Also recorded” adds a separate entry of the source. Read-outs that look alike come from different tables or passages of the source.

Experiments:
Assay type in all cases: cell-based
E. coli = assay: Antibiotic activity against E. coli
E. coli tolC = assay: Antibiotic activity against E. coli tolC in vitro; conditions: E. coli tolC has an impaired cell wall
[1] = test system: Streptococcus mutans wild-type strain; assay: Inhibition of biofilm formation in in vitro culture (live/dead BacLight staining, microtiter plate); conditions: for inhibition at 0.025 µg/mL: Carolacton 0.025 μg/mL; for inhibition at 0.25 µg/mL: Carolacton 0.25 μg/mL; for inhibition at 2.5 µg/mL: Carolacton 2.5 μg/mL; for inhibition at 50 µg/mL: Carolacton 50 μg/mL
Method: (§1) Using Streptococcus mutans as a model organism that generates biofilms, overnight cultures of Streptococcus mutans in THB medium (Todd Hewitt Broth, available from Bacto) were diluted 1:100 into fresh THB medium containing 0.5% wt/vol sucrose. For anaerobic growth, medium was flushed with nitrogen before use. Aliquots of the diluted culture (95 μL) of Example 1 were distributed into the wells of a 96-well polystyrene flat bottom microtiter plate, containing 5 μL of different concentrations of test compound or alternatively, 5 μL methanol as a control. Microtiter plates were incubated under aerobic and an anaerobic conditions, respectively, at 37° C. for approximately 24 hours. For non-biofilm forming growth, e.g. planctonic growth, cells were grown in THB without the additional sucrose under otherwise identical conditions.
(§2) Bacterial growth was monitored in the microtiter plate by optical density readings at 620 nm. Quantitative bio film formation was determined using the live/dead bacLight bacterial viability staining kit (available under catalogue number L13152 from Molecular Probes, Eugene, Oreg., USA). The kit incorporates two nucleic acid stains that differ in spectral characteristics and their ability to penetrate bacterial cell membranes. When used alone, the green fluorescing stain Cyto9 generally labels all bacteria in the population, whereas the red fluorescing stain propidium-iodide only penetrates bacteria having damaged membranes, causing a reduction in the Cyto9 stain fluorescence when both dyes are present.
For staining, the culture medium was removed from the microtiter plate wells and cells were washed once with 100 μL fresh THB medium to remove planctonic growing and loosely bound cells. According to all the manufacturer's instructions, the adherent bacteria, regarded as the bio film, were then stained for 15 min in the dark at room temperature, using 100 μL of a 1:1 mixture of the two dye components. Fluorescence was measured in a microtiter plate reader (Wallac Victor 1420 multilabel counter, PerkinElmer Life Sciences), equipped with detectors and filter sets for monitoring red and green fluorescence.
Quantitative bio film formation was calculated by dividing the fluorescence intensities of the stained biofilms for each well of the microtiter plate at an emission of 530 nm (green) by the fluorescence intensity at the emission of 630 nm (red). As 100% activity, the results obtained from wells only containing methanol as the control, instead of a test compound, was used. Under anaerobic conditions, Carolacton inhibited formation of biofilm from Streptococcus mutans at very low concentrations.
For a determination of bio film inhibition in relation to the control, the activity value for the Carolacton comprising test well was subtracted from the value obtained for the control. At concentrations of 2.5 and 0.25 μg/mL Carolacton, respectively, bio film formation by Streptococcus mutans wild-type strain was inhibited by about 60% under anaerobic conditions.

[2] = test system: Streptococcus mutans com E (−) mutant; assay: Inhibition of biofilm formation, quorum sensing negative mutant com E (-)
[3] = test system: Streptococcus mutans com D (−) mutant; assay: Inhibition of biofilm formation, quorum sensing negative mutant com D (-); conditions: read-out: Biofilm inhibition, com D (−) mutant
Method: as §1
as §2, with “The kit incorporates two nucleic acid stains that differ in spectral characteristics and their ability to penetrate bacterial cell membranes.” left out, “present. […]” for “present.”

[4] = test system: Streptococcus mutans com C (−) mutant; assay: Biofilm formation, quorum sensing negative mutant com C (-); conditions: same testing conditions
Method: as §1
as §2, with “The kit incorporates two nucleic acid stains that differ in spectral characteristics and their ability to penetrate bacterial cell membranes.” left out, “present. […]” for “present.”

[5] = test system: Streptococcus mutans luxS mutant; assay: Inhibition of biofilm formation, luxS mutant; conditions: read-out: Biofilm inhibition, luxS mutant
Method: as §1
as §2, with “The kit incorporates two nucleic acid stains that differ in spectral characteristics and their ability to penetrate bacterial cell membranes.” left out, “present. […]” for “present.”

[6] = test system: Streptococcus mutans planctonic cultures; assay: Planctonic growth (optical density readings at 620 nm); conditions: THB without additional sucrose
Method: as §1
as §2, with “The kit incorporates two nucleic acid stains that differ in spectral characteristics and their ability to penetrate bacterial cell membranes.” left out

[7] = Streptococcus mutans, aerobic, read-out: Biofilm inhibition (%) under aerobic conditions
[8] = Streptococcus mutans, anaerobic, read-out: Biofilm inhibition (%) under anaerobic conditions

COC(CC(=O)O)C(C)C(=O)C(C)/C=C(\C)C1OC(=O)C(O)C(O)/C=C/C(C)CCCC1C (stereo not shown) [Carolacton]
Concentration needed to inhibit E. coli (E. coli): above 40 μg/mL | Concentration with antibiotic activity against E. coli tolC (E. coli tolC): 60 ng/mL | inhibition at 0.025 µg/mL [1, 7]: 21% | inhibition at 0.25 µg/mL [1, 7]: 21% | inhibition at 2.5 µg/mL [1, 7]: 19% | inhibition at 50 µg/mL [1, 7]: 1% | inhibition at 0.0025 µg/mL ([1]; Streptococcus mutans, anaerobic, Carolacton 0.0025 μg/mL, read-out: Biofilm inhibition (%) under anaerobic conditions): -7% | inhibition at 0.005 µg/mL ([1]; Streptococcus mutans, anaerobic, Carolacton 0.005 μg/mL, read-out: Biofilm inhibition (%) under anaerobic conditions): 35% | inhibition at 0.025 µg/mL [1, 8]: ~65% | inhibition at 0.05 µg/mL ([1]; Streptococcus mutans, anaerobic, Carolacton 0.05 μg/mL, read-out: Biofilm inhibition (%) under anaerobic conditions): 60% | inhibition at 0.25 µg/mL [1, 8]: ~60% | inhibition at 0.25 µg/mL ([1]; Streptococcus mutans, anaerobic, second experiment, read-out: Biofilm inhibition (%) under anaerobic conditions): 77% | inhibition at 2.5 µg/mL [1, 8]: ~60% | inhibition at 25 µg/mL ([1]; Streptococcus mutans, anaerobic, Carolacton 25 μg/mL, read-out: Biofilm inhibition (%) under anaerobic conditions): 66% | inhibition at 50 µg/mL [1, 8]: 82% | Lowest concentration achieving inhibition of biofilm generation ([1]; in vitro cultures): 0.005 µg/mL | Biofilm inhibition, com E (−) mutant ([2]; Carolacton 2.5 μg/mL, same testing conditions): 5% | inhibition at 0.25 µg/mL ([2]; Streptococcus mutans, read-out: Biofilm inhibition, com E (−) mutant): 12% | inhibition at 0.25 µg/mL [3]: ~10% | inhibition at 2.5 µg/mL [3]: ~10% | Induction of biofilm formation, com C (−) mutant ([4]; Carolacton 0.25 μg/mL): 150% | Induction of biofilm formation, com C (−) mutant ([4]; Carolacton 2.5 μg/mL): 200% | inhibition at 2.5 µg/mL [5]: 59% | inhibition at 40.25 µg/mL [5]: 46% | Influence on planctonic growth [6]: only slightly influenced; also recorded: not influenced by Carolacton, or only marginally reduced
